Test results taken from patent US20240207337A1, “MYCELIAL CULTURE OF Irpex lacteus AND COMPOSITION COMPRISING SAME AS ACTIVE INGREDIENT FOR PREVENTION AND TREATMENT OF DIABETES MEILLITUS” (LONGRUNN MEDICAL FOOD PTE. LTD., priority 2021, published 2024).

What was measured:
Format in all cases: in vivo
[1] = test system: db/db mice; assay: Oral glucose tolerance test (OGTT) in db/db mice; settings: G5: Diabex 400 mg/kg oral
Protocol: (1) The OGTT measures the body's ability to use glucose.
(2) After 6 days of acclimatization, OGTT test animals were fasted for 16 hours before OGTT (water provided).
(3) Blood glucose was measured 30 minutes before administration of the test substance and once again 30 minutes later, that is, just before glucose administration.
(4) At 30, 60, 90, 120, and 240 min after administration of oral glucose at a dose of 2 g/10 mL/kg, blood was taken from tail veins and measured for glucose levels using a blood glucose meter (Accu-Check Performa).

[2] = test system: db/db mice; assay: Histopathological examination of pancreas (H&E) in db/db mice; settings: G5: Diabex 400 mg/kg/day oral, three weeks
Protocol: All the experimental animals were anesthetized by inhalation with CO2 and autopsied by laparotomy, and blood was collected from the posterior vena cava. After blood collection, the animals were killed by excision of the abdominal aorta and posterior vena cava and exsanguination. For histopathological examination, hematoxylin & eosin (H&E) staining was conducted to measure numbers and diameters of pancreatic islets and proportions of zymogen granules per unit area of exocrine pancreatic portions.

[3] = test system: db/db mice; assay: Hemato-biochemical examination in db/db mice; settings: G5: Diabex 400 mg/kg/day oral, three weeks
Protocol: Of the blood collected for clinical pathology on the day of the end of the experiment, about 200 μL was used for analyzing glycated hemoglobin (HbA1c) while the remainder was left for 30 min or longer at room temperature in a vacutainer tube containing a clot activator and then centrifuged at 3000 rpm for 10 min. The serum obtained by centrifugation was transferred to a new tube and subjected to hemato-biochemical examination.
Using a hemato-biochemical analyzer, whole blood and sera which had been stored separately were subjected to hemato-biological examination for total cholesterol (TCHO), aspartate aminotransferase (AST), high-density lipoprotein (HDL), low-density lipoprotein (LDL), alanine aminotransferase (ALT), and glycated hemoglobin (HbA1c).

[4] = test system: db/db mice; assay: Blood insulin and c-peptide measurement (ELISA) in db/db mice; settings: three weeks
Excerpt: C-peptide is a substance that is secreted when proinsulin, a precursor of insulin, is degraded and released. The peptide, although lacking bioactivity, accounts for the secretion state of insulin. In addition, with a long half-life, C-peptide is used as an index to evaluate insulin secretion. The sera stored in separation were quantitatively assayed for insulin and c-peptide, using an ELISA kit (Shibayagi, AKRIN-011T and AKRCP-031).

[5] = test system: db/db mice; assay: Blood glucose level after repeated oral administration for three weeks in db/db mice; settings: G5: Diabex 400 mg/kg/day oral
Protocol: In this experiment, the test material lyophilizate of a mycelial culture of Irpex lacteus KACC 83046BP was orally administered to the db/db mice, which are an animal model of diabetes, for three weeks and examined for hypoglycemic effect. This test was conducted in the Local Food Institute of Gimcheon University.
For use in tests, sterile water for injection (excipient) was used as a negative control while Diabex tablet ([…], 500 mg) commercially available from Dai Han Pharm. Co., Ltd. (Kyeonggi-do) was used as a positive control. A test substance was divided into three groups: high-, medium-, and low-dose groups, which were prepared in suspension by adding the same amount of the test substance to different amounts of the sterile water for injection.
Blood glucose levels were measured once a week for three weeks during the experiment. In order to objectively measure blood glucose levels, all experimental animals were blocked from eating feed 6 hours before blood glucose measurement on the day of blood glucose measurement. Blood glucose levels were measured using a portable blood glucose meter (Accu-Check Performa/USA).

metformin phosphate [Diabex]
Blood glucose level (OGTT) ([1]; 0 min (just before glucose 2 g/kg)): 385 ± 33 mg/dL
Blood glucose level (OGTT) ([1]; 30 min after glucose): 421 ± 29 mg/dL
Blood glucose level (OGTT) ([1]; 60 min after glucose): 343 ± 12 mg/dL
Blood glucose level (OGTT) ([1]; 90 min after glucose): 246 ± 26 mg/dL
Blood glucose level (OGTT) ([1]; 120 min after glucose): 208 ± 11 mg/dL
Blood glucose level (OGTT) ([1]; 240 min after glucose): 174 ± 22 mg/dL
Blood glucose level (OGTT) ([1]; −30 min (before administration)): 265 ± 11 mg/dL
Diameter of islet [2]: 126.25 ± 5.3 μm
No. of pancreatic Islets [2]: 6.25 ± 0.1 islets/cm^2
Zymogen granules [2]: 41.39 ± 0.7 %/mm^2 of exocrine pancreas
ALT [3]: 72.1 ± 4.5 U/L
AST [3]: 116.5 ± 4.6 U/L
HDL [3]: 88.2 ± 4.2 mg/dL
HbA1c [3]: 6.8 ± 0.2 %
LDL [3]: 25.9 ± 2.7 mg/dL
TCHO [3]: 116.7 ± 3.2 mg/dL
Blood insulin compared to the negative control (G1) ([4]; G5 (Diabex 400 mg/kg) oral): significant decrease
Blood C-peptide level ([4]; G5: Diabex 400 mg/kg/day oral): 459.7 ± 82.3 pg/mL
Blood insulin level ([4]; G5: Diabex 400 mg/kg/day oral): 1.96 ± 0.39 ng/mL
Blood glucose level ([5]; Day 1 (first day of administration)): 365 ± 24 mg/dL
Blood glucose level ([5]; Week 1): 371 ± 12 mg/dL
Blood glucose level ([5]; Week 2): 452 ± 13 mg/dL
Blood glucose level ([5]; Week 3): 436 ± 11 mg/dL
